Experiment: solvent given as SMILES

Structure (SMILES): O=Cc1cc(O)c(C=O)cc1O
- absorption maximum (in C1CCOC1): 414 nm
- absorption maximum (in C1COCCO1): 414 nm
- absorption maximum (in CC#N): 413 nm
- absorption maximum (in CC(C)=O): 413 nm
- absorption maximum (in CCCO): 415 nm
- absorption maximum (in CCO): 413 nm
- absorption maximum (in CN(C)C=O): 414 nm
- absorption maximum (in CN(C)P(=O)(N(C)C)N(C)C): 427 nm
- absorption maximum (in CNC=O): 377 nm
- absorption maximum (in CO): 384 nm
- absorption maximum (in CS(C)=O): 417 nm
- absorption maximum (in NC=O): 356 nm

Structure (SMILES): CC(C)(C)c1ccc(N2c3ccc(C(C)(C)C)cc3B3c4cc(C(C)(C)C)ccc4N(c4ccc(C(C)(C)C)cc4)c4cc(-n5c6ccc(C(C)(C)C)cc6c6cc(C(C)(C)C)ccc65)cc2c43)cc1
- absorption maximum (in Cc1ccccc1): 451 nm

Structure (SMILES): CCOC(=O)c1c(-c2cc3cc4c(cc3oc2=O)OC(C)(C)CC4)nn(-c2ccccc2)c1C(=O)OCC
- absorption maximum (in ClCCl): 348 nm

Structure (SMILES): CCN(CC)c1ccc(C(=C(c2ccc(B(c3c(C)cc(C)cc3C)c3c(C)cc(C)cc3C)cc2)c2ccc(B(c3c(C)cc(C)cc3C)c3c(C)cc(C)cc3C)cc2)c2ccc(N(CC)CC)cc2)cc1
- absorption maximum (in C1CCOC1): 431 nm

Structure (SMILES): CCCC1(CCC)c2cc(C=C(C#Cc3ccccc3)C#Cc3ccccc3)ccc2-c2ccc(C=C(C#Cc3ccccc3)C#Cc3ccccc3)cc21
- absorption maximum (in ClC(Cl)Cl): 422 nm

Structure (SMILES): C1=Cc2ccccc2C(=Cc2ccc(-c3ccc(C=C4c5ccccc5-c5ccccc54)cc3)cc2)c2ccccc21
- absorption maximum (in C1CCOC1): 357 nm

Structure (SMILES): CCOC(=O)c1cc(C(=O)OCC)c2cc([N+](=O)[O-])ccc2n1
- absorption maximum (in CCO): 304 nm

Structure (SMILES): N#Cc1ccc(C[C@H](N)C(=O)O)cc1
- absorption maximum (in C1CCOC1): 236.81 nm
- absorption maximum (in CCO): 233.58 nm
- absorption maximum (in O): 233.33 nm

Structure (SMILES): CCOC(=O)COc1ccc(/C=C/C2=C3c4ccccc4C(c4[nH]c(C)cc4C)=[N+]3[B-](F)(F)n3c(/C=C/c4ccc(OCC(=O)OCC)cc4)cc(C)c32)cc1
- absorption maximum (in C1CCOC1): 676 nm
- absorption maximum (in CC#N): 667 nm
- absorption maximum (in CCCCCC): 674 nm
- absorption maximum (in CO): 668 nm
- absorption maximum (in Cc1ccccc1): 683 nm
- absorption maximum (in ClCCl): 676 nm

Structure (SMILES): N#Cc1ccc(/C=C/C=C/C2=NC3C(=O)NC(N)=NC3N2[C@H]2C[C@H](O)[C@@H](CO)O2)cc1 (some centres undefined)
- absorption maximum (in C1COCCO1): 395 nm
- absorption maximum (in CC#N): 387 nm
- absorption maximum (in CO): 381 nm

Structure (SMILES): COCCOCCOCCOc1ccc(OCCOCCOCCOC)c(C=O)c1
- absorption maximum (in CC(C)(C)O): 349 nm
- absorption maximum (in CC(C)CO): 349 nm
- absorption maximum (in CC(C)O): 349 nm
- absorption maximum (in CCCCO): 348 nm
- absorption maximum (in CCCO): 348 nm
- absorption maximum (in CCO): 348 nm
- absorption maximum (in CN(C)C=O): 349 nm
- absorption maximum (in CNC=O): 349 nm
- absorption maximum (in CO): 348 nm
- absorption maximum (in NC=O): 352 nm
- absorption maximum (in O): 350 nm

Structure (SMILES): Cc1cc(C)c(B(c2c(C)cc(C)cc2C)c2c(C)cc(-n3c4ccccc4c4cc(N(c5ccccc5)c5ccccc5)ccc43)cc2C)c(C)c1
- absorption maximum (in Cc1ccccc1): 375 nm

Structure (SMILES): CC1(C)CC(/C=C/c2ccc(-n3c4ccccc4c4ccccc43)cc2)=CC(=C(C#N)C#N)C1
- absorption maximum (in C1CCOC1): 408 nm
- absorption maximum (in CC#N): 405 nm
- absorption maximum (in CCO): 414 nm
- absorption maximum (in CCOC(C)=O): 407 nm
- absorption maximum (in ClCCl): 410 nm
- absorption maximum (in c1ccccc1): 422 nm

Structure (SMILES): N#CC(C#N)=Cc1ccc(-c2cccc(-c3nc4ccccc4s3)c2O)o1
- absorption maximum (in CCO): 421 nm
- absorption maximum (in ClCCl): 428 nm
- absorption maximum (in O): 443 nm

Structure (SMILES): CCCCCCCCCCOc1cc2cc(C#Cc3ccc(/C=C(\C#N)C(=O)O)cc3)c(=O)oc2cc1OCCCCCCCCCC
- absorption maximum (in CC#N): 398 nm

Structure (SMILES): O=c1c2ccccc2c2nc3cc4c(C#C[Si](C5CCCCC5)(C5CCCCC5)C5CCCCC5)c5cc6nc7c8ccccc8c(=O)c8ccccc8c7nc6cc5c(C#C[Si](C5CCCCC5)(C5CCCCC5)C5CCCCC5)c4cc3nc2c2ccccc12
- absorption maximum (in ClCCl): 731 nm

Structure (SMILES): Fc1ccc(-c2c3ccccc3nc3cc4ccccc4cc23)cc1
- absorption maximum (in ClCCl): 400 nm

Structure (SMILES): CC1(C)C(/C=C/C=C/C=C/C=C2/N(S(=O)(=O)[O-])c3ccc(S(=O)(=O)[O-])cc3C2(C)C)=[N+](S(=O)(=O)[O-])c2ccc(S(=O)(=O)[O-])cc21
- absorption maximum (in CO): 755 nm

Structure (SMILES): Cc1nc2cccc(-c3nc4ccc([N+](=O)[O-])cc4[nH]3)c2c(=O)[nH]1
- absorption maximum (in CN(C)C=O): 310 nm

Structure (SMILES): CCN1CCN(c2ccc(/N=N/c3ccc(C#N)cc3)cc2)CC1
- absorption maximum (in CCOC(C)=O): 428 nm

Structure (SMILES): CCOC(=O)c1cc(C(=O)OCC)c2cc(C)ccc2n1
- absorption maximum (in CCO): 330 nm

Structure (SMILES): C(#Cc1ccccc1)C(C#Cc1ccccc1)=Cc1ccc(C=C(C#Cc2ccccc2)C#Cc2ccccc2)cc1
- absorption maximum (in ClC(Cl)Cl): 416 nm

Structure (SMILES): Cc1ccc(C2=[N+]3C(=Cc4ccc(C)n4[B-]3(F)F)c3ccccc32)[nH]1
- absorption maximum (in C1CCOC1): 599 nm
- absorption maximum (in CC#N): 592 nm
- absorption maximum (in CCCCCC): 602 nm
- absorption maximum (in CO): 595 nm
- absorption maximum (in Cc1ccccc1): 606 nm
- absorption maximum (in ClCCl): 600 nm

Structure (SMILES): Ic1ccc(C2=C3C=CC4=[N+]3[B-]3(Oc5ccccc54)Oc4ccccc4-c4ccc2n43)cc1 (centres undefined)
- absorption maximum (in ClC(Cl)Cl): 630 nm

Structure (SMILES): CCOC(=O)C1(O)c2cc3ccc4cccc5ccc(c2C(=O)N1C(C)(C)C)c3c45 (centres undefined)
- absorption maximum (in ClC(Cl)Cl): 385 nm

Structure (SMILES): CN(C)c1ccc(-c2cc(-c3ccccc3)nn2C)cc1
- absorption maximum (in ClCCl): 280 nm

Structure (SMILES): COC(=O)C(NC(=O)OC(C)(C)C)c1ccc2oc(-c3cc(OC)c(OC)cc3OC)nc2c1 (centres undefined)
- absorption maximum (in CC1CCCCC1): 327 nm
- absorption maximum (in CC#N): 333 nm
- absorption maximum (in CO): 335 nm

Structure (SMILES): O=C(O)CCCCCn1c2ccccc2c(=O)c2ccccc21
- absorption maximum (in O): 410 nm

Structure (SMILES): CC(C)(C)c1ccc2c(c1)c1cc(C(C)(C)C)ccc1n2-c1ccc(C#Cc2cccc(C#Cc3ccc(-n4c5ccc(C(C)(C)C)cc5c5cc(C(C)(C)C)ccc54)cc3)c2)cc1
- absorption maximum (in CC#N): 340 nm
- absorption maximum (in CCCCC): 340 nm
- absorption maximum (in CO): 338 nm
- absorption maximum (in Cc1ccccc1): 345 nm
- absorption maximum (in ClC(Cl)Cl): 344 nm
- absorption maximum (in ClCCl): 345 nm

Structure (SMILES): C(=C\c1nc(/C=C/c2ccc(-n3c4ccccc4c4ccccc43)cc2)nc(/C=C/c2ccc(-n3c4ccccc4c4ccccc43)cc2)n1)/c1ccc(-n2c3ccccc3c3ccccc32)cc1
- absorption maximum (in C1CCOC1): 381 nm
- absorption maximum (in CC#N): 376 nm
- absorption maximum (in Cc1ccccc1): 389 nm
- absorption maximum (in ClCCl): 383 nm

Structure (SMILES): CC(C)(C)NC(=O)c1ccc2ccc3cccc4c3c2c1c1c2ccccc2c2ccccc2c41
- absorption maximum (in ClCCl): 392 nm

Structure (SMILES): N[C@@H](Cc1ccc(O)cc1)C(=O)O
- absorption maximum (in O): 285 nm

Structure (SMILES): CC(C)(C)c1ccc(C2=C(c3ccc(N(c4ccccc4)c4ccccc4)cc3)S(=O)(=O)c3c2sc(-c2ccc(N(c4ccccc4)c4ccccc4)cc2)c3-c2ccc(C(C)(C)C)cc2)cc1
- absorption maximum (in C1CCOC1): 463 nm

Structure (SMILES): C(=C(c1ccccc1)c1ccccc1)c1ccc(-c2cc(-c3ccc(C=C(c4ccccc4)c4ccccc4)cc3)cc(-c3ccc(C=C(c4ccccc4)c4ccccc4)cc3)c2)cc1
- absorption maximum (in C1CCOC1): 333 nm

Structure (SMILES): Cc1ccc(N(c2ccccc2)c2ccc3ccc4c(N(c5ccccc5)c5ccc(C)cc5)ccc5ccc2c3c54)cc1
- absorption maximum (in ClCCl): 428 nm

Structure (SMILES): CCCc1cc2c(s1)-c1cc3c(cc1NB2c1ccccc1)-c1sc(CCC)cc1B(c1ccccc1)N3
- absorption maximum (in ClCCl): 411 nm

Structure (SMILES): CCCCCCCc1ccc(C2=[N+]3C(=C4c5cc(OCC(CC)CC)c(-c6ccc(CCCCCCC)o6)n5[B-](F)(F)[n+]5nnn(c54)[B-]3(F)F)C=C2OCC(CC)CC)o1
- absorption maximum (in C1CCOC1): 811 nm
- absorption maximum (in ClCCl): 826 nm

Structure (SMILES): FC(F)(F)c1ccc2oc3nc4oc5ccc(N6c7ccccc7Oc7ccccc76)cc5c4cc3c2c1
- absorption maximum (in ClC(Cl)Cl): 344 nm

Structure (SMILES): CCCCCCC(CCCCCC)N1C(=O)c2cccc3c(-c4ccc(-c5ccc(OC)cc5)cc4)ccc(c23)C1=O
- absorption maximum (in CCCCCC): 354 nm
- absorption maximum (in CCCCCCCCCCCCCC): 357.6 nm
- absorption maximum (in CCCCCCCCCCCO): 369.4 nm
- absorption maximum (in CCCCO): 366 nm
- absorption maximum (in CN(C)C=O): 369 nm
- absorption maximum (in Cc1ccccc1): 364.8 nm
- absorption maximum (in ClC(Cl)Cl): 364.4 nm

Structure (SMILES): CC(C)(C)c1ccc(-c2nc3c4ccccc4c4ccccc4c3n2-c2ccc(-c3ccc(N(c4ccccc4)c4ccccc4)cc3)cc2)cc1
- absorption maximum (in ClCCl): 332 nm

Structure (SMILES): CCOC(=O)CCCn1c(C(=O)OC)c(C)c2c(=O)n3c(cc21)C(CC)=C(C)C3=O
- absorption maximum (in C1CCCCC1): 396 nm
- absorption maximum (in CO): 397 nm
- absorption maximum (in CS(C)=O): 397 nm
- absorption maximum (in ClC(Cl)Cl): 398 nm
- absorption maximum (in c1ccccc1): 397 nm

Structure (SMILES): CCCC1(CCC)c2cc(-c3ccc(C(C)(C)C)cc3)ccc2-c2ccc(-c3ccc4c(c3)C(CCC)(CCC)c3cc(-c5ccc(C(C)(C)C)cc5)ccc3-4)cc21
- absorption maximum (in C1CCCCC1): 346 nm

Structure (SMILES): CN1C(=Cc2c([O-])c(=O)/c2=N\C#N)C(C)(C)c2ccccc21
- absorption maximum (in CCO): 436 nm

Structure (SMILES): N#Cc1ccc(C2=CC3=c4cc(-c5ccc(C#N)cc5)c5nc(C(F)(F)C(F)(F)C(F)(F)F)nc6c(-c7ccc(C#N)cc7)cc(c4c65)C4=CC(c5ccc(C#N)cc5)=C5N=C(C(F)(F)C(F)(F)C(F)(F)F)N=C2C5C43)cc1 (centres undefined)
- absorption maximum (in C1CCOC1): 492 nm

Structure (SMILES): O=C([O-])c1ccccc1-c1c2cc(I)c(=O)c(I)c-2oc2c(I)c([O-])c(I)cc12
- absorption maximum (in CC(C)O): 532 nm
- absorption maximum (in CCO): 532 nm
- absorption maximum (in CO): 526 nm
- absorption maximum (in O): 521 nm

Structure (SMILES): N#Cc1c(N2CCCCC2)cc(-c2ccccc2)c2c1Cc1ccccc1-2
- absorption maximum (in C1CCOC1): 358 nm

Structure (SMILES): CN(C)c1ccc(C(=O)c2ccccc2)cc1
- absorption maximum (in C1CCCCC1): 325 nm
- absorption maximum (in CC#N): 345 nm
- absorption maximum (in CO): 355 nm
- absorption maximum (in CS(C)=O): 350 nm
- absorption maximum (in c1ccccc1): 340 nm

Structure (SMILES): CC1(C)c2ccccc2N(c2ccc(-c3nc(C#N)c(C#N)nc3-c3ccc(N4c5ccccc5C(C)(C)c5ccccc54)cc3)cc2)c2ccccc21
- absorption maximum (in Cc1ccccc1): 436 nm

Structure (SMILES): CCn1c2ccsc2c2c3nsnc3c3c4sccc4n(CC)c3c21
- absorption maximum (in C1CCOC1): 436 nm
- absorption maximum (in CCOC(C)=O): 433 nm
- absorption maximum (in CN(C)C=O): 441 nm
- absorption maximum (in Cc1ccccc1): 432 nm
- absorption maximum (in ClCCl): 436 nm

Structure (SMILES): CCOC(=O)c1c(-c2cc3ccccc3oc2=O)nn(-c2cccc(F)c2)c1C(=O)OCC
- absorption maximum (in ClCCl): 324 nm

From the Deep4Chem optical property database
